Legend:
Type in all cases: cell-based, HIV-1
[1] = system: HIV strain Y181C; experiment: Cellular anti-HIV assay in MT4 LTR-EGFP cells, mutant Y181C; details: Human immunodeficiency virus 1, read-out: Y181C pEC50 (converted)
Experimental: (§1) Because of the increasing emergence of drug resistant HIV strains, the present compounds were tested for their potency against clinically isolated HIV strains harbouring several mutations. These mutations are associated with resistance to reverse transcriptase inhibitors and result in viruses that show various degrees of phenotypic cross-resistance to the currently commercially available drugs such as for instance AZT and delavirdine.
(§2) The antiviral activity of the compound of the present invention has been evaluated in the presence of wild type HIV and HIV mutants bearing mutations at the reverse transcriptase gene. The activity of the compounds is evaluated using a cellular assay which was performed according to the following procedure.
(§3) The human T-cell line MT4 is engineered with Green Fluorescent Protein (GFP) and an HIV-specific promoter, HIV-1 long terminal repeat (LTR). This cell line is designated MT4 LTR-EGFP, and can be used for the in vitro evaluation of anti-HIV activity of investigational compounds. In HIV-1 infected cells, the Tat protein is produced which upregulates the LTR promotor and finally leads to stimulation of the GFP reporter production, allowing to measure ongoing HIV-infection fluorometrically. Analogously, MT4 cells are engineered with GFP and the constitutional cytomegalovirus (CMV) promotor. This cell line is designated MT4 CMV-EGFP, and can be used for the in vitro evaluation of cytotoxicity of investigational compounds. In this cell line, GFP levels are comparably to those of infected MT4 LTR-EGFP cells. Cytotoxic investigational compounds reduce GFP levels of mock-infected MT4 CMV-EGFP cells.
(§4) Effective concentration values such as 50% effective concentration (EC50) can be determined and are usually expressed in μM. An EC50 value is defined as the concentration of test compound that reduces the fluorescence of HIV-infected cells by 50%. The 50% cytotoxic concentration (CC50 in μM) is defined as the concentration of test compound that reduces fluorescence of the mock-infected cells by 50%. The ratio of CC50 to EC50 is defined as the selectivity index (SI) and is an indication of the selectivity of the anti-HIV activity of the inhibitor. The ultimate monitoring of HIV-1 infection and cytotoxicity is done using a scanning microscope. Image analysis allows very sensitive detection of viral infection. Measurements are done before cell necrosis, which usually takes place about five days after infection, in particular measurements are performed three days after infection.
(§5) The columns IIIB, L100I, etc. in the table list the pEC50 values against various strains IIIB, L100I, etc.

[2] = system: HIV strain L100I + K103N; experiment: Cellular anti-HIV assay in MT4 LTR-EGFP cells, mutant L100I + K103N; details: Human immunodeficiency virus 1, 72 h, read-out: L100I + K103N pEC50 (converted)
Experimental: as §1, §2, §3, §4, §5

[3] = system: HIV strain IIIB (wild type); experiment: Cellular anti-HIV assay in MT4 LTR-EGFP cells, strain IIIB (wild type); selectivity index versus cytotoxicity in mock-infected MT4 CMV-EGFP cells; details: for EC50: Human immunodeficiency virus 1, 72 h, wild type HIV strain IIIB, MT4 LTR-EGFP cells, fluorescence, three days after infection, read-out: IIIB pEC50 (converted); for IIIB pSi: selectivity index = ratio of CC50 (mock-infected MT4 CMV-EGFP cells) to EC50 (IIIB), given as p value
Experimental: as §2, §3, §4, §5
Strain IIIB is wild type HIV strain

[4] = system: HIV strain L100I; experiment: Cellular anti-HIV assay in MT4 LTR-EGFP cells, mutant L100I; details: Human immunodeficiency virus 1, read-out: L100I pEC50 (converted)
Experimental: as §1, §2, §3, §4, §5

[5] = system: HIV strain Y188L; experiment: Cellular anti-HIV assay in MT4 LTR-EGFP cells, mutant Y188L; details: Human immunodeficiency virus 1, read-out: Y188L pEC50 (converted)
Experimental: as §1, §2, §3, §4, §5

[6] = system: HIV strain K103N + Y181C; experiment: Cellular anti-HIV assay in MT4 LTR-EGFP cells, mutant K103N + Y181C; details: Human immunodeficiency virus 1, 72 h, read-out: K103N + Y181C pEC50 (converted)
Experimental: as §1, §2, §3, §4, §5

[7] = system: HIV strain MDR; experiment: Cellular anti-HIV assay in MT4 LTR-EGFP cells, MDR strain; details: Human immunodeficiency virus 1, read-out: MDR pEC50 (converted)
Experimental: as §1, §2, §3, §4, §5
MDR refers to a strain that contains mutations L100I, K103N, Y181C, E138G, V1791, L2214F, V278V/I and A327A/V in HIV reverse transcriptase.

[8] = system: HIV strain K103N; experiment: Cellular anti-HIV assay in MT4 LTR-EGFP cells, mutant K103N; details: Human immunodeficiency virus 1, read-out: K103N pEC50 (converted)
Experimental: as §1, §2, §3, §4, §5

SMILES | EC50 [1] [nM] | EC50 [2] [nM] | EC50 [3] [nM] | IIIB pSi [3] | EC50 [4] [nM] | EC50 [5] [nM] | EC50 [6] [nM] | EC50 [7] [nM] | EC50 [8] [nM]
Cc1cc(/C=C/C#N)cc(C)c1Nc1nc(Nc2ccc(C#N)cc2)ncc1C(=O)N(C)c1ccccc1 [Compound 5] | 100 | 50.1 | 5.01 | >3.70 | 25.1 | 100 | 158 | 3980 | 10
Cc1cc(/C=C/C#N)cc(C)c1Nc1nc(Nc2ccc(C#N)cc2)ncc1C(=O)N(C)CCO [Compound 7] | 20 | 50.1 | 1.58 | 4.00 | 7.94 | 50.1 | 63.1 | 2000 | 2
Cc1cc(/C=C/C#N)cc(C)c1Nc1nc(Nc2ccc(C#N)cc2)ncc1C(=O)NCC1CC1 [Compound 41] | 15.8 | 50.1 | 5.01 | >3.70 | 7.94 | 79.4 | 20 | 1580 | 3.98
COCCCNC(=O)c1cnc(Nc2ccc(C#N)cc2)nc1Nc1c(C)cc(/C=C/C#N)cc1C [Compound 9] | 12.6 | 25.1 | 2.51 | >4.00 | 5.01 | 15.8 | 20 | 1000 | 3.16
Cc1cc(/C=C/C#N)cc(C)c1Nc1nc(Nc2ccc(C#N)cc2)ncc1C(=O)NCC1CCCO1 (stereo not drawn) [Compound 12] | 15.8 | 20 | 1.26 | 4.10 | 2.51 | 10 | 12.6 | 1000 | 2.51
Cc1cc(/C=C/C#N)cc(C)c1Nc1nc(Nc2ccc(C#N)cc2)ncc1C(=O)Nc1ccccn1 [Compound 3] | 15.8 | 12.6 | 2 | 4.00 | 5.01 | 25.1 | 63.1 | 2510 | 3.16
Cc1cc(/C=C/C#N)cc(C)c1Nc1nc(Nc2ccc(C#N)cc2)ncc1C(=O)NCc1cccs1 [Compound 20] | 39.8 | 100 | 5.01 | 3.60 | 15.8 | 50.1 | 31.6 | 2510 | 5.01
Cc1cc(/C=C/C#N)cc(C)c1Nc1nc(Nc2ccc(C#N)cc2)ncc1C(=O)NCc1ccc(Br)cc1 [Compound 36] | 126 | 794 | 25.1 | >3.00 | 126 | 398 | 126 | 10000 | 25.1
Cc1cc(/C=C/C#N)cc(C)c1Oc1nc(Nc2ccc(C#N)cc2)ncc1C(=O)NCC1CCCO1 (stereo not drawn) [Compound 59] | 31.6 | 251 | 2.51 | 3.80 | 63.1 | 251 | 79.4 | 3980 | 6.31
Cc1cc(/C=C/C#N)cc(C)c1Nc1nc(Nc2ccc(C#N)cc2)ncc1C(=O)N1CCCCC1 [Compound 2] | 126 | 200 | 3.16 | >3.90 | 63.1 | 398 | 501 | 10000 | 12.6
Cc1cc(/C=C/C#N)cc(C)c1Nc1nc(Nc2ccc(C#N)cc2)ncc1C(=O)NCc1ccc(F)cc1 [Compound 26] | 50.1 | 316 | 12.6 | 3.00 | 25.1 | 79.4 | 39.8 | 5010 | 12.6
Cc1cc(/C=C/C#N)cc(C)c1Nc1nc(Nc2ccc(C#N)cc2)ncc1C(=O)NCCN1CCCC1 [Compound 51] | 63.1 | 126 | 3.98 | 3.00 | 79.4 | 100 | 63.1 | 2510 | 6.31
CC(=O)NCCNC(=O)c1cnc(Nc2ccc(C#N)cc2)nc1Nc1c(C)cc(/C=C/C#N)cc1C [Compound 33] | 50.1 | 15.8 | 15.8 | >3.20 | 15.8 | 63.1 | 12.6 | 398 | 15.8
Cc1cc(/C=C/C#N)cc(C)c1Nc1nc(Nc2ccc(C#N)cc2)ncc1C(=O)N1CCN(C)CC1 [Compound 6] | 100 | 1260 | 1.58 | >4.20 | 158 | 316 | 398 | 10000 | 5.01
Cc1cc(/C=C/C#N)cc(C)c1Nc1nc(Nc2ccc(C#N)cc2)ncc1C(=O)NC1CC1 [Compound 37] | 12.6 | 20 | 2.51 | 3.60 | 5.01 | 12.6 | 7.94 | 1000 | 1.58
Cc1cc(/C=C/C#N)cc(C)c1Nc1nc(Nc2ccc(C#N)cc2)ncc1C(=O)NCCCO [Compound 49] | 79.4 | 63.1 | 15.8 | 3.00 | 20 | 79.4 | 50.1 | 501 | 15.8
Cc1cc(/C=C/C#N)cc(C)c1Nc1nc(Nc2ccc(C#N)cc2)ncc1C(=O)NCCc1ccc(S(N)(=O)=O)cc1 [Compound 47] | 50.1 | 126 | 20 | 3.10 | 63.1 | 100 | 126 | 501 | 25.1
Cc1cc(/C=C/C#N)cc(C)c1Nc1nc(Nc2ccc(C#N)cc2)ncc1C(=O)NCCN(C)C [Compound 22] | 15.8 | 100 | 0.794 | 3.90 | 20 | 50.1 | 20 | 2000 | 0.631
Cc1cc(/C=C/C#N)cc(C)c1Nc1nc(Nc2ccc(C#N)cc2)ncc1C(=O)Nc1cccc(Cl)c1 [Compound 16] | 200 | 501 | 25.1 | 2.60 | 79.4 | 501 | 316 | 7940 | 3.98
Cc1cc(/C=C/C#N)cc(C)c1Nc1nc(Nc2ccc(C#N)cc2)ncc1C(=O)NCC1COC(C)(C)O1 (stereo not drawn) [Compound 10] | 15.8 | 39.8 | 2.51 | >4.00 | 3.98 | 20 | 63.1 | 501 | 3.16
CONC(=O)c1cnc(Nc2ccc(C#N)cc2)nc1Oc1c(C)cc(/C=C/C#N)cc1C [Compound 62] | 20 | 39.8 | 1.58 | 4.00 | 5.01 | 39.8 | 31.6 | 3160 | 2.51

Reference: patent publication US8933089B2, “HIV inhibiting 5-amido substituted pyrimidines” (Janssen R & D Ireland, priority 2006, dated 2015)
